Results reported in patent publication US20260193227A1, “THERAPEUTIC COMPOUNDS AND METHODS” (UNIVERSITY OF IOWA RESEARCH FOUNDATION, priority 2022, published 2026).

Test system: EUFA423F and EUFA423F HA cells
Assay: Clonogenic survival assay
Type: cell-based, human
Settings: cells pre-treated 72 hours, colonies after 8 days
Excerpt: Cell lines: EUFA423F cells that are derived from a Fanconi Anemia patient with complementation group D1 and have biallelic mutations (7691 insAT and 9900 insA) in BRCA2 that result in two different truncated forms of BRCA2 (Howlett N G, et al., Science (New York, NY). 2002; 297(5581):606-9) and its counterpart complemented with expression vector for full-length BRCA2 (EUFA HA) were a generous gift from Dr. Simon Powell, Molecular Biology Program, Radiation Oncology, Sloan-Kettering Cancer Center, New York, NY).
Cell proliferation assay: Selective toxicity of the compounds towards human BRCA2 deficient cells was tested in EUFA423F and its complement EUFA423F HA using CellTiter-Glo® Luminescent Cell Viability Assay (Promega, Madison, WI). […] Post treatment, the cells were washed, treated with the CellTiter-Glo® reagent was added and the plate was analyzed as using a Gen5 (ver2.1) luminosity plate reader. The luminescence that reports on ATP generation by the surviving cells was normalized for the DMSO treated control as 100%. The normalized luminescence (average±standard deviation for at least three independent measurements obtained with different cell passages) was plotted in GraphPad Prism as a function of compound concentration. […] A colony had to contain at least 50 cells to be counted. […]

Compound	clonogenic survival: confirmation of effect on cell viability
O=C(Cn1cccc([N+](=O)[O-])c1=O)c1c[nH]c2ccccc12 [Example 1]	confirmed
COc1ccccc1NS(=O)(=O)c1cc(C(=O)O)ccc1C [Example 8]	confirmed
